In US20220168302A1, “SALTS OF A COMPOUND, CRYSTAL FORMS OF THE SALTS AND PREPARATION METHOD AND USE THEREOF” (Gan & Lee Pharmaceuticals Co., Ltd., priority 2019, published 2022):
In brackets after ≈: the same amount, converted by molar mass. Read-outs that look alike come from different tables or passages of the source.

What was measured:
Format in all cases: physicochemical
[1] = Solubility test in water, FaSSIF and FeSSIF (24 h, 37° C., HPLC concentration); conditions: initial feeding amount 10 mg/ml; for solubility at 24 h: 37 °C, thermodynamic from solid
Experimental: Experimental method: the solubility test was carried out in three solvents including water, fasted state simulated intestinal fluid (FaSSIF) and fed state simulated intestinal fluid (FeSSIF), to evaluate the solubilities of the salts of the present invention.
In the experiment, the sample and the solvent were mixed in a centrifuge tube (the initial feeding amount was 10 mg/ml), then the centrifuge tube was sealed and fixed on a rotating disk with a rotation speed of 25 rpm, and sampling was performed after rotating and mixing for 24 h at 37° C. The turbid sample was subjected to centrifugal separation, and the filtered supernatant was measured for HPLC concentration. If the sample solution was clear, the concentration of the obtained solution was measured.

[2] = Dynamic moisture adsorption (DVS) hygroscopicity test; conditions: for Hygroscopicity (moisture adsorption capacity): DVS, 25° C./80% RH; for Whether the crystal form has a change: XRPD before and after DVS test
Experimental: The moisture adsorption capacities of the representative salts and the free base of the above Examples and Comparative Examples were tested when the humidity reached 80% RH through a dynamic moisture adsorption (DVS) test at 25° C., so as to compare the hygroscopicities.
Experimental results: the test results are shown in Table 13, wherein, >15% means very hygroscopic, 2% to 15% means hygroscopic, 0.2% to 2% means slightly hygroscopic, and <0.2% means almost non-hygroscopic.

[3] = Solid-state stability test, one week, HPLC purity; conditions: for HPLC purity 1 week: open container; for HPLC purity, Initial purity: before storage
Experimental: Experimental method: appropriate amount of samples were respectively weighed and placed in open containers under the conditions of light illumination of 4500 lux, 25° C./60% RH and 40° C./75% RH to perform solid-state stability test evaluation for one week. One week later, the purities of the test samples were tested by HPLC to detect the change of purity. Three groups of parallel tests were set for each test condition.
High performance liquid chromatograms were collected on an Agilent 1100 HPLC.

[4] = Solubility test in water, FaSSIF and FeSSIF (24 h, 37° C., HPLC concentration); conditions: stated in background
[5] = fasted state simulated intestinal fluid
[6] = fed state simulated intestinal fluid
[7] = FeSSIF, fessif, fed state simulated intestinal fluid, read-out: Solubility in FeSSIF
[8] = FaSSIF, fassif, fasted state simulated intestinal fluid, read-out: Solubility in FaSSIF
[9] = water, water, water, read-out: Solubility in water

| SMILES | Solubility in FaSSIF [1, 5] [mg/mL] | Solubility in water ([1]; water) [mg/mL] | Hygroscopicity (moisture adsorption capacity) [2] [%] | Whether the crystal form has a change [2] | HPLC purity 1 week Relative to the initial purity ([3]; 25° C./60% RH) [%] | HPLC purity 1 week ([3]; 25° C./60% RH) [Area %] | HPLC purity 1 week Relative to the initial purity ([3]; 40° C./75% RH) [%] | HPLC purity 1 week ([3]; 40° C./75% RH) [Area %] | HPLC purity 1 week Relative to the initial purity ([3]; Light illumination 4500 lux) [%] | HPLC purity 1 week ([3]; Light illumination 4500 lux) [Area %] | HPLC purity, Initial purity [3] [Area %] | solubility at 24 h [1, 7] [µg/mL] | solubility at 24 h [1, 8] [µg/mL] | other results |
| --- | --- | --- | --- | --- | --- | --- | --- | --- | --- | --- | --- | --- | --- | --- |
| CC1=Nc2c(F)cc(-c3nc(Nc4ccc(C5CCN(C)CC5)cn4)ncc3F)cc2C12CCCC2 [Adipate crystal form A, Adipate of 5-fluoro-4-(7′-fluoro-2′-methylspiro[cyclopentane-1,3′-indol]-5′-yl)-N-(5-(1-methylpiperidin-4-yl)pyridin-2-yl)pyrimidine-2-amine] | 6.8 (≈ 13.9 mM) | 6.5 (≈ 13.3 mM) | 0.22 | No change | 100.0 | 99.88 | 100.0 | 99.89 | 100.0 | 99.88 | 99.90 |  |  | Solubility in FeSSIF [1, 6]: 11.6 mg/mL (≈ 23.7 mM); Whether the crystal form has a change ([2]; listed as adipate crystal form A): no change; HPLC purity 1 week Relative to the initial purity ([3]; 40° C./75% RH, listed as adipate crystal form A): 100%; HPLC purity 1 week Relative to the initial purity ([3]; Light illumination 4500 lux, listed as adipate crystal form A): 100% |
| CC1=Nc2c(F)cc(-c3nc(Nc4ccc(C5CCN(C)CC5)cn4)ncc3F)cc2C12CCCC2 [Free base crystal form A, 5-fluoro-4-(7′-fluoro-2′-methylspiro[cyclopentane-1,3′-indol]-5′-yl)-N-(5-(1-methylpiperidin-4-yl)pyridin-2-yl)pyrimidine-2-amine, reference compound] | 0.19 (≈ 0.389 mM) | 0.075 (≈ 0.154 mM) | 0.10 | No change | 100.0 | 100.0 | 99.9 | 99.92 | 99.3 | 99.28 | 100.00 | 10200 (≈ 20.9 mM) |  | HPLC purity 1 week Relative to the initial purity ([3]; Light illumination 4500 lux, listed as free base crystal form A): 99.3%; solubility [4]: 75 µg/mL (≈ 0.154 mM) |
| CC1=Nc2c(F)cc(-c3nc(Nc4ccc(C5CCN(C)CC5)cn4)ncc3F)cc2C12CCCC2.O=C(O)/C=C/C(=O)O [Fumarate crystal form A, Fumarate of 5-fluoro-4-(7′-fluoro-2′-methylspiro[cyclopentane-1,3′-indol]-5′-yl)-N-(5-(1-methylpiperidin-4-yl)pyridin-2-yl)pyrimidine-2-amine] |  | 6.3 | 0.35 | No change | 100.0 | 99.89 | 100.0 | 99.88 | 100.0 | 99.89 | 99.92 | 8000 | 7600 | Whether the crystal form has a change ([2]; listed as fumarate crystal form A): no change; HPLC purity 1 week Relative to the initial purity ([3]; 40° C./75% RH, listed as fumarate crystal form A): 100%; HPLC purity 1 week Relative to the initial purity ([3]; Light illumination 4500 lux, listed as fumarate crystal form A): 100% |
| CC1=Nc2c(F)cc(-c3nc(Nc4ccc(C5CCN(C)CC5)cn4)ncc3F)cc2C12CCCC2.O=C(O)/C=C/C(=O)O [Fumarate crystal form C, Fumarate of 5-fluoro-4-(7′-fluoro-2′-methylspiro[cyclopentane-1,3′-indol]-5′-yl)-N-(5-(1-methylpiperidin-4-yl)pyridin-2-yl)pyrimidine-2-amine] | 5.9 | 0.48 |  |  | 100.0 | 99.48 | 100.0 | 99.48 | 100.0 | 99.46 | 99.48 |  |  | Solubility in FeSSIF [1, 6]: 13.6 mg/mL; HPLC purity 1 week Relative to the initial purity ([3]; 40° C./75% RH, listed as fumarate crystal form C): 100%; HPLC purity 1 week Relative to the initial purity ([3]; Light illumination 4500 lux, listed as fumarate crystal form C): 100% |
| CC1=Nc2c(F)cc(-c3nc(Nc4ccc(C5CCN(C)CC5)cn4)ncc3F)cc2C12CCCC2.Cl [Hydrochloride crystal form B, Hydrochloride of 5-fluoro-4-(7′-fluoro-2′-methylspiro[cyclopentane-1,3′-indol]-5′-yl)-N-(5-(1-methylpiperidin-4-yl)pyridin-2-yl)pyrimidine-2-amine, reference compound] |  |  | 9.12 | Change |  |  |  |  |  |  |  |  |  | Whether the crystal form has a change ([2]; listed as hydrochloride crystal form B): changed to amorphous |
| CC1=Nc2c(F)cc(-c3nc(Nc4ccc(C5CCN(C)CC5)cn4)ncc3F)cc2C12CCCC2.O=C(O)/C=C\C(=O)O [Maleate crystal form B, Maleate of 5-fluoro-4-(7′-fluoro-2′-methylspiro[cyclopentane-1,3′-indol]-5′-yl)-N-(5-(1-methylpiperidin-4-yl)pyridin-2-yl)pyrimidine-2-amine] |  |  | 2.00 | No change | 100.0 | 99.88 | 100.0 | 99.89 | 99.9 | 99.83 | 99.91 | 7800 | 7100 | solubility at 24 h [1, 9]: 12900 µg/mL; Whether the crystal form has a change ([2]; listed as maleate crystal form B): no change; HPLC purity 1 week Relative to the initial purity ([3]; 40° C./75% RH, listed as maleate crystal form B): 100% |
| CC1=Nc2c(F)cc(-c3nc(Nc4ccc(C5CCN(C)CC5)cn4)ncc3F)cc2C12CCCC2.CS(=O)(=O)O [Methanesulfonate crystal form A, Methanesulfonate of 5-fluoro-4-(7′-fluoro-2′-methylspiro[cyclopentane-1,3′-indol]-5′-yl)-N-(5-(1-methylpiperidin-4-yl)pyridin-2-yl)pyrimidine-2-amine, reference compound] |  |  | 12.02 | Change | 99.9 | 99.73 | 99.4 | 99.16 | 98.5 | 98.28 | 99.81 |  |  | Whether the crystal form has a change ([2]; listed as methanesulfonate crystal form A): changed to amorphous |
| CC1=Nc2c(F)cc(-c3nc(Nc4ccc(C5CCN(C)CC5)cn4)ncc3F)cc2C12CCCC2.O=C(O)CCC(=O)O [Succinate crystal form A, Succinate of 5-fluoro-4-(7′-fluoro-2′-methylspiro[cyclopentane-1,3′-indol]-5′-yl)-N-(5-(1-methylpiperidin-4-yl)pyridin-2-yl)pyrimidine-2-amine] |  |  | 0.33 | No change | 100.0 | 99.90 | 100.00 | 99.90 | 100.0 | 99.90 | 99.94 | 10700 | 6400 | solubility at 24 h [1, 9]: 7500 µg/mL; Whether the crystal form has a change ([2]; listed as succinate crystal form A): no change; HPLC purity 1 week Relative to the initial purity ([3]; 40° C./75% RH, listed as succinate crystal form A): 100%; HPLC purity 1 week Relative to the initial purity ([3]; Light illumination 4500 lux, listed as succinate crystal form A): 100% |
